From patent publication US10220026B2, “Micelle containing epirubicin-complexed block copolymer and anti-cancer agent, and pharmaceutical composition containing said micelle applicable to treatment of cancer, resistant cancer or metastatic cancer” (priority 2014, dated 2019)

What was measured:
[1] = Incorporation of compounds in micelles of epirubicin-conjugated block copolymer (HPLC, DLS); type: physicochemical; conditions: for detection of the compound in micelles formed by epirubicin-conjugated block copolymer: micelles produced by the method of Example 1
Procedure: The mixed solution was applied to a rotary evaporator (N-1200AV (Elyra)) followed by evaporating the methanol. After having evaporated the methanol, HEPES buffer (10 mM, pH 7.4, 50 ml) was added to the flask followed by carrying out sonication for 30 minutes (Bioruptor, Cosmo Bio Co., Ltd., Japan). Subsequently, the solution was passed through a polyethersulfone (PES) filter (0.22 μm) (Millipore Corp.). The solution was further purified by subjecting to five rounds of ultrafiltration (molecular weight cutoff: 30,000 Da) (Centricon Plus-20, Millipore Corp.) for 15 minutes (while adding 5 ml of HEPES buffer (10 mM, pH 7.4) for each round of ultrafiltration) followed by concentrating to 15 ml. Finally, the solution was passed through a PES filter (0.22 μm).

[2] = tested on: cisplatin-resistant lung cancer cells (H460); test: Elimination of epirubicin and eFluxx-ID-GFP by resistant strain (confocal microscopy), lung cancer; type: cell-based, human; conditions: concentrations of Table 6
Procedure: (§1) Epirubicin-resistant breast cancer cells (MCF-7) and cisplatin-resistant lung cancer cells (H460) were respectively disseminated in each of the wells of an 8-well Tek chambered cover glass (Thermo Fisher Scientific K.K.) at 1×10^4 cells/well followed by culturing overnight. The medium was then replaced with 200 μl of RPMI1640 (phenol red-free) containing 0.1 μg/ml of Hoechst 33342 and 10% FBS.
(§2) 200 μl of eFluxx-ID-GFP solution were added 1 hour after addition of drug. The medium was replaced with RPMI1640 medium containing 10% FBS 30 minutes after addition followed by observation with an LSM780 confocal microscope and taking photographs thereof (FIGS. 12B and 13B). Cells subjected to the procedure prior to acquiring resistance were used as a control and epirubicin was added for the drug. In this experiment, fluorescence-labeled epirubicin (manufacturer) was used for the epirubicin.

[3] = tested on: cisplatin-resistant human lung cancer H460-luc cells; test: In vivo anti-cancer activity in orthotopic lung cancer model (survival); conditions: female nude mice, intravenous, epirubicin equivalent 6 mg/kg, Days 4, 11, 18, 25, 32
Procedure: Luciferase-expressing lung cancer H460-luc cells (JCRB) were cultured for 3 months in medium containing 1 μg/ml of cisplatin to acquire a cisplatin-resistant strain. 2×10^6 cells of the cisplatin-resistant strain H460-luc (containing 10% Matrigel (Becton Dickinson) were implanted into the left lower lobe of the lungs of female nude mice in accordance with the method described in Fushiki, et al., Cancer Sci., 2009 August, 100(8). Four days after implant, the drugs indicated in the following table were diluted to their prescribed dosages with physiological saline for injection (Otsuka Pharmaceutical Co., Ltd.) and administered into the caudal vein (on Days 4, 11, 18, 25 and 32).
HEPES solution was administered instead of a drug for use as a negative control. […] D-luciferin (Summit Pharmaceuticals International Corp.) was administered intraperitoneally and luminescence intensity of the luciferase was measured twice a week using an IVIS Imaging System (Summit Pharmaceuticals International Corp.) (FIG. 8A). Survival curves were verified according to the Kaplan-Meier method using Prism software and the presence of significant differences was tested using the log-rank test.

[4] = tested on: mouse kidney cancer-derived cells (Renca); test: In vivo anti-cancer activity in orthotopic kidney cancer model (survival, lung metastasis, CD105); conditions: Balb/c mice, intravenous, epirubicin equivalent 6 mg/kg, Days 4, 11, 18
Procedure: 2×10^4 mouse kidney cancer-derived cells (Renca) (50 μl, containing 10% Matrigel) were administered into the renal capsules of Balb/c mice using the method described in Dinney, C. […] Four days after administering into the kidney, the drugs indicated in the following table were diluted to their prescribed dosages with physiological saline for injection (Otsuka Pharmaceutical Co., Ltd.) and administered into the caudal vein (on Days 4, 11 and 18).
HEPES solution was administered instead of a drug for use as a negative control. […] The days in which the animals died were recorded, and survival curves were verified according to the Kaplan-Meier method using Prism software and the presence of significant differences was tested using the log-rank test.
Sixty days later, the diameters of tumors that had metastasized to the lung were measured by 3DμCT (R-mCT2m, Rigaku Corp., Japan) for the experimental animals, or in the case an animal had died, the radius was measured directly following autopsy followed by determination of tumor volume (using the equation 4/3×π×r^3). […] Moreover, the number of cells expressing the stem cell marker, CD105, was measured by flow cytometry.

[5] = tested on: epirubicin-resistant human mesothelioma cells (MSTO-211H-luc); test: In vivo anti-cancer activity in orthotopic mesothelioma model (survival); conditions: female nude mice, intravenous, epirubicin equivalent 6 mg/kg, Days 5-63
Procedure: Human mesothelioma MSTO-211H was transfected with luciferase based on the method described in Mol. Ther., 2012 April, 20(4), 769-777 to obtain a luciferase-expressing strain (MSTO-211H-luc). MSTO-211H-luc cells were cultured for 3 months in medium containing 0.2 μg/ml of epirubicin to produce epirubicin-resistant human mesothelioma cells (MSTO-211H-luc). 1×10^6 of the epirubicin-resistant MSTO-211H-luc cells were administered into the thoracic cavity of female nude mice to produce an orthotopic implant model. Five days after administration, drugs at the dosages shown in the following table were diluted with physiological saline for injection (Otsuka Pharmaceutical Co., Ltd.) and administered into the caudal vein (on Days 5, 9, 13, 23, 33, 43, 53 and 63).
HEPES solution was administered instead of a drug for use as a negative control. […] D-luciferin (Summit Pharmaceuticals International Corp.) was administered intraperitoneally, and body weights of the mice were measured simultaneous to measuring luminescence intensity of the luciferase twice a week using an IVIS Imaging System (Summit Pharmaceuticals International Corp.) (FIGS. 6A to 6C). […] Significant differences as determined with a log-rank test were observed between the negative control and Epi (P=0.016), between Epi and Epi Micelle (P=0.0001) and between Epi Micelle and STS+Epi Micelle (P=0.0012).

[6] = tested on: Epirubicin-resistant breast cancer cells (MCF-7); test: Elimination of epirubicin and eFluxx-ID-GFP by resistant strain (confocal microscopy), breast cancer; type: cell-based, human; conditions: epirubicin-resistant strain; concentrations of Table 6
Procedure: as §1, §2

[7] = tested on: MSTO-211H mesothelioma cells; test: Aldefluor assay (FACS) on cancer stem cells in mesothelioma; type: cell-based, human; conditions: 1 μM cisplatin, 0.01 μM pemetrexed, 0.001 μM staurosporine, 0.01 μM UCN-1; 72 hours or 24 hours
[8] = tested on: cisplatin-resistant lung cancer cells (H460 Cis-R); test: eFluxx-ID Green Multidrug Resistance Assay (drug elimination activity, MAF), lung cancer; type: cell-based, human; conditions: 30 μM
Procedure: (§3) More specifically, after detaching each of the cultured cells by incubating in trypsin-EDTA solution, the cells were washed with medium to obtain cell suspensions having a concentration of 1×10^4 cells/ml. […] 125 μl of eFluxx-ID-GFP solution were added 1 hour after addition of drug at the concentration directed in the kit. Following addition, the cell suspensions were incubated for 30 minutes at 37° C. followed by the addition of DAPI at a final concentration of 0.5 μg/ml and analyzing with a flow cytometer (BD LSR II, BD Biosciences). MAF values shown in the figures refer to the multidrug resistance activity factor (MAF) calculated from the mean fluorescence intensity of flow cytometry, and a high value for MAF indicates a greater inhibitory effect on ABC transporters. The calculation formulas were as indicated below: MAFMDR-1=100×(FMDR-1−F0)/FMDR-1 MAFMRP=100×(FMRP−F0)/FMRP NAFBCRP=100×(FBCRP−F0)/FBCRP [Equation 4] (wherein, F represents the mean flow cytometry value during addition of inhibitor, and F0 represents the mean flow cytometry value when inhibitor is not added).

[9] = tested on: A549 cells highly expressing MRP; test: eFluxx-ID Green Multidrug Resistance Assay (drug elimination activity, MAF), MRP; type: cell-based; conditions: 30 μM
Procedure: as §3

[10] = tested on: epirubicin-resistant breast cancer cells (MCF-7 EPI-R); test: eFluxx-ID Green Multidrug Resistance Assay (drug elimination activity, MAF), breast cancer; type: cell-based, human; conditions: 30 μM
Procedure: as §3

[11] = tested on: epirubicin-resistant mesothelioma cells (MSTO-211H EPI-R); test: eFluxx-ID Green Multidrug Resistance Assay (drug elimination activity, MAF), mesothelioma; type: cell-based, human; conditions: 30 μM
Procedure: as §3

[12] = tested on: Mesothelioma cell line MSTO-211H cells; test: Effect of micelle incorporation during addition of hAGP, Cell Counting Kit-8 cell survival; type: cell-based, human; conditions: hAGP 0.5 mg/ml; STS 0.02 μg/ml, epirubicin 0.1 μg/ml
Procedure: Anti-cancer activity was measured according to the method indicated below using the Cell Counting Kit-8 (Dojindo, Japan). Mesothelioma cell line MSTO-211H cells were disseminated at 1×10^3 cells/well to 3×10^3 cells/well and cultured. The medium was replaced on the following day followed by the addition of 50 μl of medium. […] 72 hours later, 10 μl of Cell Counting Kit-8 were added followed by measuring optical absorbance at 450 nm 1 hour later with a microplate reader (Model 680, BioRad, Hercules, Calif.). […] Cell survival rate (%)=[(As−Ab)/(Ac−Ab)×100 [Equation 2]
In the equation, As indicates the optical absorbance of the specimen (wells containing cells, test substance and Cell Counting Kit solution), Ac indicates the optical absorbance of a negative control (wells containing only cells and Cell Counting Kit solution) (absence of test substance), and Ab indicates the optical absorbance of a blank (cell-free wells containing only medium and Cell Counting Kit solution).

[13] = tested on: Hela cells highly expressing BCRP; test: eFluxx-ID Green Multidrug Resistance Assay (drug elimination activity, MAF), BCRP; type: cell-based; conditions: 30 μM
Procedure: as §3

## C[C@]12O[C@H](C[C@]1(O)CO)n1c3ccccc3c3c4c(c5c6ccccc6n2c5c31)CNC4=O [CEP701/lestaurtinib, lestaurtinib]
[1]
  detection of the compound in micelles formed by epirubicin-conjugated block copolymer: able to be detected in the micelles

## COc1cccc2c1C(=O)c1c(O)c3c(c(O)c1C2=O)C[C@@](O)(C(=O)CO)C[C@@H]3O[C@H]1C[C@H](N)[C@@H](O)[C@H](C)O1 [Epi, epirubicin]
[2]
  elimination of epirubicin and eFluxx-ID outside the cells: eliminated outside cells
[3]
  survival, significant difference versus negative control (log-rank test P): not observed
[4]
  survival, log-rank test P versus negative control: 0.0001
[5]
  survival, log-rank test P versus negative control: 0.016
[6]
  elimination of epirubicin and eFluxx-ID outside the cells: eliminated outside cells

## CO[C@@H]1[C@H](N(C)C(=O)c2ccccc2)C[C@H]2O[C@]1(C)n1c3ccccc3c3c4c(c5c6ccccc6n2c5c31)C(=O)NC4 [PKC412]
[1]
  detection of the compound in micelles formed by epirubicin-conjugated block copolymer: able to be detected in the micelles

## CN[C@@H]1C[C@H]2O[C@@](C)([C@@H]1OC)n1c3ccccc3c3c4c(c5c6ccccc6n2c5c31)C(=O)N[C@H]4O [UCN-01, 7-hydroxystaurosporine]
[7]
  Aldefluor-positive cells (cancer stem cells): decreased
[1]
  detection of the compound in micelles formed by epirubicin-conjugated block copolymer: able to be detected in the micelles

## N.N.[Cl][Pt][Cl] [cisplatin]
[7]
  Aldefluor-positive cells (cancer stem cells): increased

## Cn1cc(C2=C(c3cn(C4CCN(Cc5ccccn5)CC4)c4ccccc34)C(=O)NC2=O)c2ccccc21 [enzastaurin]
[1]
  detection of the compound in micelles formed by epirubicin-conjugated block copolymer: unable to be detected in the micelles

## Nc1nc2[nH]cc(CCc3ccc(C(=O)N[C@@H](CCC(=O)O)C(=O)O)cc3)c2c(=O)[nH]1 [pemetrexed]
[7]
  Aldefluor-positive cells (cancer stem cells): increased

## COC(=O)[C@H]1[C@H]2C[C@@H]3c4[nH]c5cc(OC)ccc5c4CCN3C[C@H]2C[C@@H](OC(=O)c2cc(OC)c(OC)c(OC)c2)[C@@H]1OC [reserpine]
[1]
  detection of the compound in micelles formed by epirubicin-conjugated block copolymer: able to be detected in the micelles

## CN[C@@H]1C[C@H]2O[C@@](C)([C@@H]1OC)n1c3ccccc3c3c4c(c5c6ccccc6n2c5c31)C(=O)NC4 [staurosporine]
[8]
  elimination of drug (eFluxx-ID) from cells: prevented elimination
[7]
  Aldefluor-positive cells (cancer stem cells): decreased
[1]; epirubicin:staurosporine weight ratio of 1:1
  dispersibility of staurosporine-incorporating epirubicin micelle: dispersibility increased
[1]; epirubicin:staurosporine weight ratio of 1:2, unsuitable as incorporating micelle
  polydispersivity of staurosporine-incorporating epirubicin micelle: polydispersivity increased
[1]; epirubicin:staurosporine weight ratio of 5:1
  incorporation of staurosporine in the epirubicin micelle: complete incorporation
[1]
  detection of the compound in micelles formed by epirubicin-conjugated block copolymer: able to be detected in the micelles
[9]
  elimination of drug (eFluxx-ID) from cells: prevented elimination
[10]
  elimination of drug (eFluxx-ID) from cells: prevented elimination
[11]
  elimination of drug (eFluxx-ID) from cells: prevented elimination
[12]
  effect of addition of human α-acid glycoprotein (hAGP) on cell survival rate: significant increase in cell survival rate
[13]
  elimination of drug (eFluxx-ID) from cells: prevented elimination

## COc1ccc(CCN(C)CCCC(C#N)(c2ccc(OC)c(OC)c2)C(C)C)cc1OC (stereo not drawn) [verapamil]
[2]
  elimination of epirubicin and eFluxx-ID outside the cells: localized within the cells
[6]
  elimination of epirubicin and eFluxx-ID outside the cells: localized within the cells

## CS(=O)(=O)c1ccc(C(=O)Nc2ccc(Cl)c(-c3ccccn3)c2)c(Cl)c1 [vismodegib]
[1]
  detection of the compound in micelles formed by epirubicin-conjugated block copolymer: unable to be detected in the micelles
